Reference: patent publication US12662479B2 (Foghorn Therapeutics Inc., priority 2020, dated 2026)
Structures can show the parent of a compound that is named as a salt. Where two headings read alike, the source gives them in different places.

How the values were obtained:
[1] = molecular target: T1, HiBit-BRG1 fusion protein (Homo sapiens, UniProt P51532); assay: HiBiT-BRG1 cell-based degradation assay (Nano-Glo HiBiT Lytic Detection, 24 h); settings: for Dmax: HeLa, top dose 30 μM, read-out: BRG1 HiBit Degradation Maximum measured
T1 construct: expressed in transfected cells
T1 sequence (P51532 whole entry, the tested form may be a part): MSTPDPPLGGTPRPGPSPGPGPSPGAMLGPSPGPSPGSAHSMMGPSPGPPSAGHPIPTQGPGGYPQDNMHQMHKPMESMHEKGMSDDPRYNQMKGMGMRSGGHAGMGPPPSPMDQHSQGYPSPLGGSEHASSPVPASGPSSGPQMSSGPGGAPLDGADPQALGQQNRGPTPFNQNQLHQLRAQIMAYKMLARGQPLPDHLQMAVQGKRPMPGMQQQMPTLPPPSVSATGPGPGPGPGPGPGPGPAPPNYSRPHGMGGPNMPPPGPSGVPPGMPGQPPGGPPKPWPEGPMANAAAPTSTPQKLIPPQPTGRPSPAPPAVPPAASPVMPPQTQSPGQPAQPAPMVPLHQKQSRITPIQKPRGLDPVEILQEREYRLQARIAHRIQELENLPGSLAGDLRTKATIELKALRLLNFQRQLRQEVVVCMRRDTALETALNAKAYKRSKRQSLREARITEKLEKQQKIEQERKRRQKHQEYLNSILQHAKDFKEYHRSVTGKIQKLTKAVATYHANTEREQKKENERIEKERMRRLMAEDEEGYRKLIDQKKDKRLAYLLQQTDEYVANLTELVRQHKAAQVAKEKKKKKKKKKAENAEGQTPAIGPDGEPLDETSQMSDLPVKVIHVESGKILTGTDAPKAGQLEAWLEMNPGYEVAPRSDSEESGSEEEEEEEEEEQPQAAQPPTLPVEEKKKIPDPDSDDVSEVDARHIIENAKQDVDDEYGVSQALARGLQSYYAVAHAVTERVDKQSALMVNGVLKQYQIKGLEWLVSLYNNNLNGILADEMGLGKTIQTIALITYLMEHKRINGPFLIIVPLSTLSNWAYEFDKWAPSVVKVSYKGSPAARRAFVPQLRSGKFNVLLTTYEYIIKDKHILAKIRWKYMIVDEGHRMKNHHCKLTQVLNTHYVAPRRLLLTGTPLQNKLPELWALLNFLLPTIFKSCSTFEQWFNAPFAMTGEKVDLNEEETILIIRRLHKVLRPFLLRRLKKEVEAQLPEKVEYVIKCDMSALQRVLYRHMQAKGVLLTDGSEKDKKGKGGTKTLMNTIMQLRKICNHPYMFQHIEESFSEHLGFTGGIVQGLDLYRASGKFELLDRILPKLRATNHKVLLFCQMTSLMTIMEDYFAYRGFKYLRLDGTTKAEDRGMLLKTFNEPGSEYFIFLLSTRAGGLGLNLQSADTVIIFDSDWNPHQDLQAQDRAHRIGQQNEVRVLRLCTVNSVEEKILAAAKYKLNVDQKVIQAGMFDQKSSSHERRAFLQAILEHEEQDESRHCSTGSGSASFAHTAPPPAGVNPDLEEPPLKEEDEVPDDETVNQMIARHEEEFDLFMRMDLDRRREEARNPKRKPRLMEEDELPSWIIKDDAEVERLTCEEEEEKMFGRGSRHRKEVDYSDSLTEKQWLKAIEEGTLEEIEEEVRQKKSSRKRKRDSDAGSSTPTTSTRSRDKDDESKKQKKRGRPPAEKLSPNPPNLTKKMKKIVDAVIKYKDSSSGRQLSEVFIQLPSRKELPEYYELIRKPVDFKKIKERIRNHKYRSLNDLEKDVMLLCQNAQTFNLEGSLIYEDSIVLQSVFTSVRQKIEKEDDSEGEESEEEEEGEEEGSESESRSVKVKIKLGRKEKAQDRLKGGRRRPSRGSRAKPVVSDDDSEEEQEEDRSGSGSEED
Method in brief: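 Stable HeLa line expressing HiBiT-BRG1 and LgBiT, seeded at 5000 cells/well; luminescence read after lytic Nano-Glo HiBiT reagent and 10 min shaking at RT. % degradation normalised between DMSO (high control) and 2 μM reference BRM/BRG1 degrader (low control).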

[2] = molecular target: T2, HiBit-BRM fusion protein (Homo sapiens, UniProt P51531); assay: HiBiT-BRM cell-based degradation assay (Nano-Glo HiBiT Lytic Detection, 24 h); settings: HeLa cells expressing HiBiT-BRM; for DC50: read-out: BRM HiBit Degradation IC50; for BRM HiBit Degradation Maximum measured: top dose 30 μM
T2 construct: expressed in transfected cells
T2 sequence (P51531 whole entry, the tested form may be a part): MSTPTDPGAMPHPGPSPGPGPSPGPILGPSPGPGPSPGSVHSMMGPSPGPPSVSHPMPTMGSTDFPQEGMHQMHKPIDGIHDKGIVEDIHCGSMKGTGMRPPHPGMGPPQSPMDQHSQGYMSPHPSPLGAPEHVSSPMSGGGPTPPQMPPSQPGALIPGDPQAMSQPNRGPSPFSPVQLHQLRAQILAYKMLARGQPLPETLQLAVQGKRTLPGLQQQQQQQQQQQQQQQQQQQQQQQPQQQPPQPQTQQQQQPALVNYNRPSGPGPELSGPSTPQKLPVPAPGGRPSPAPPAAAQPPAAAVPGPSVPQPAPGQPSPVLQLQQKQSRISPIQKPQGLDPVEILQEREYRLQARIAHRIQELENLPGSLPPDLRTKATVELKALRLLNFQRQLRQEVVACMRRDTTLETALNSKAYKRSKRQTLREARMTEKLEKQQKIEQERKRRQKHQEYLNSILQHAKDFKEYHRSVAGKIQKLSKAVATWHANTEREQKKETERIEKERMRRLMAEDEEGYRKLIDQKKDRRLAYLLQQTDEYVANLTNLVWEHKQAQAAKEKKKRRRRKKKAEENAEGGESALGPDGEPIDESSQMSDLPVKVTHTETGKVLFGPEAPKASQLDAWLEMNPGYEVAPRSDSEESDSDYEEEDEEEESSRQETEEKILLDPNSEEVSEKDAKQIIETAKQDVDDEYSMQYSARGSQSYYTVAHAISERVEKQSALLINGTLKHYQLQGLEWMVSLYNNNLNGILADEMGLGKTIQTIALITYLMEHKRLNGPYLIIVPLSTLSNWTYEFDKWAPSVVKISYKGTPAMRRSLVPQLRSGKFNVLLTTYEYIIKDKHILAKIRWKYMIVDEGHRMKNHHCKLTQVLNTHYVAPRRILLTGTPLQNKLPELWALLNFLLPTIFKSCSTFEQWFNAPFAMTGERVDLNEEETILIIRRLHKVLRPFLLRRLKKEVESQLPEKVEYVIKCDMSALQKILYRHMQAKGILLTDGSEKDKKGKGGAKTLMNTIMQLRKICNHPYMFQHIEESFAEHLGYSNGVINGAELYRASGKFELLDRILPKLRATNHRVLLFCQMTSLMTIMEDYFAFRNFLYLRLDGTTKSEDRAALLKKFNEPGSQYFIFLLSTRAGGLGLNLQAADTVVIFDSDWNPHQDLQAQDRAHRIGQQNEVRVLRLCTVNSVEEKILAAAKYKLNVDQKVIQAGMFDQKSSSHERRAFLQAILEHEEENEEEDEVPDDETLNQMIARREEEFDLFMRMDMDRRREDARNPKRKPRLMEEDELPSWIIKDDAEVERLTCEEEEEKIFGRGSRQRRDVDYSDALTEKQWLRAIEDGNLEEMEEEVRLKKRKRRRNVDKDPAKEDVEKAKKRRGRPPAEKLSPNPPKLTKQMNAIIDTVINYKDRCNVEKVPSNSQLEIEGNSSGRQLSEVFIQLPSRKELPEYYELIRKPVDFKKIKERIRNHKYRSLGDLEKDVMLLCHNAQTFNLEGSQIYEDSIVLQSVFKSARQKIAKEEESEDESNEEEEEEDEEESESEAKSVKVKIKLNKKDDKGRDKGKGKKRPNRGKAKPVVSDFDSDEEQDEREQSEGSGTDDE
Method in brief: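 HeLa cells stably expressing HiBiT-BRM were treated for 24 h with compounds (10-point 3-fold dilutions, 30 μM final top dose, in duplicate). HiBiT was detected by lytic LgBiT complementation luminescence. % degradation was normalized to DMSO (high control) and 2 μM of a reference BRM/BRG1 degrader (low control).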

[3] = HeLa cells expressing HiBit-BRG1 and LgBit, read-out: BRG1 HiBit Degradation IC50
[4] = HeLa cells expressing HiBit-BRG1 and LgBit

SMILES | DC50 [1, 3] [µM] | Dmax [1, 4] [%] | DC50 [2] [µM] | BRM HiBit Degradation Maximum measured [2] | DC50 ([1]; read-out: BRG1 HiBit Degradation IC50, HeLa cells expressing HiBit-BRG1 and LgBit) [µM]
CS(=O)(=O)n1ccc(C(=O)NCC(=O)Nc2nc(-c3cccc(-c4ccnc(C5(C(=O)N6CCN(CCOc7ccc8c(c7)C(=O)N(C7CCC(=O)NC7=O)C8=O)CC6)CC5)c4)c3)cs2)c1 (stereo not shown) [Compound 150, N-(2-((4-(3-(2-(1-(4-(2-((2-(2,6-dioxopiperidin-3-yl)-1,3-dioxoisoindolin-5-yl)oxy)ethyl)piperazine-1-carbonyl)cyclopropyl)pyridin-4-yl)phenyl)thiazol-2-yl)amino)-2-oxoethyl)-1-(methylsulfonyl)-1H-pyrrole-3-carboxamide] | 0.1 to 1 | > 75 | 0.1 to 1 | B (‘B’ = Maximum degradation ≥50% and ≤75%) | 
CS(=O)(=O)n1ccc(C(=O)N[C@@H](COCc2ccc(C(=O)N3CC(COc4ccc5c(c4)C(=O)N(C4CCC(=O)NC4=O)C5=O)C3)cc2)C(=O)Nc2nc(-c3ccccc3)cs2)c1 (stereo partly drawn) [Compound 198, (2S)-3-([4-[3-([[2-(2,6-dioxopiperidin-3-yl)-1,3-dioxoisoindol-5-yl]oxy]methyl)azetidine-1-carbonyl]phenyl]methoxy)-2-[(1-methanesulfonylpyrrol-3-yl)formamido]-N-(4-phenyl-1,3-thiazol-2-yl)propanamide] |  |  | > 10 | C (‘C’ = Maximum degradation <50%) | > 10
CS(=O)(=O)n1ccc(C(=O)NCC(=O)Nc2nc(-c3cccc(-c4ccnc(C5(C(=O)NCCOc6ccc7c(c6)C(=O)N(C6CCC(=O)NC6=O)C7=O)CC5)c4)c3)cs2)c1 (stereo not shown) [Compound 161] | 0.1 to 1 | > 75 | 0.1 to 1 | B (‘B’ = Maximum degradation ≥50% and ≤75%) | 
Cc1ncsc1-c1ccc(CNC(=O)[C@@H]2C[C@@H](O)CN2C(=O)[C@@H](NC(=O)CCN2CCC(C(=O)NCc3cccc(-c4cccc(-c5csc(NC(=O)CNC(=O)c6ccn(S(C)(=O)=O)c6)n5)c4)c3)CC2)C(C)(C)C)cc1 [Compound 155, 1-(2-[[(2S)-1-[(2S,4R)-4-hydroxy-2-([[4-(4-methyl-1,3-thiazol-5-yl)phenyl]methyl]carbamoyl)pyrrolidin-1-yl]-3,3-dimethyl-1-oxobutan-2-yl]carbamoyl]ethyl)-N-[[3-(2-[2-[(1-methanesulfonylpyrrol-3-yl)formamido]acetamido]-1,3-thiazol-4-yl)-[1,1-biphenyl]-3-yl]methyl]piperidine-4-carboxamide formate] | > 10 |  | > 10 | C (‘C’ = Maximum degradation <50%) | 
Cc1ncsc1-c1ccc(CNC(=O)[C@@H]2C[C@@H](O)CN2C(=O)[C@@H](NC(=O)CCCCCCCCCCC(=O)NCc2cccc(-c3cccc(-c4csc(NC(=O)CNC(=O)c5ccn(S(C)(=O)=O)c5)n4)c3)c2)C(C)(C)C)cc1 [Compound 119, N1-((S)-1-((2S,4R)-4-hydroxy-2-((4-(4-methylthiazol-5-yl)benzyl)carbamoyl)pyrrolidin-1-yl)-3,3-dimethyl-1-oxobutan-2-yl)-N12-((3′-(2-(2-(1-(methylsulfonyl)-1H-pyrrole-3-carboxamido)acetamido)thiazol-4-yl)-[1,1′-biphenyl]-3-yl)methyl)dodecanediamide] | 0.1 to 1 | > 75 | 0.1 to 1 | A (‘A’ = Maximum degradation >75%) | 
Cc1ncsc1-c1ccc(CNC(=O)[C@@H]2C[C@@H](O)CN2C(=O)[C@@H](NC(=O)CCN2CC(C(=O)NCc3cccc(-c4cccc(-c5csc(NC(=O)CNC(=O)c6ccn(S(C)(=O)=O)c6)n5)c4)c3)C2)C(C)(C)C)cc1 [Compound 154, (2S,4R)-4-hydroxy-1-[(2S)-2-[3-[3-([[3-(2-[2-[(1-methanesulfonylpyrrol-3-yl)formamido]acetamido]-1,3-thiazol-4-yl)-[1,1-biphenyl]-3-yl]methyl]carbamoyl)azetidin-1-yl]propanamido]-3,3-dimethylbutanoyl]-N-[[4-(4-methyl-1,3-thiazol-5-yl)phenyl]methyl]pyrrolidine-2-carboxamide formate] | > 10 |  | > 10 | C (‘C’ = Maximum degradation <50%) | 
CS(=O)(=O)n1ccc(C(=O)N[C@@H](CCCCNC(=O)C2CC2CNC(=O)COc2cccc3c2C(=O)N(C2CCC(=O)NC2=O)C3=O)C(=O)Nc2nc(-c3ccccc3)cs2)c1 (stereo partly drawn) [Compound 284, (2S)-6-([2-[(2-[[2-(2,6-dioxopiperidin-3-yl)-1,3-dioxoisoindol-4-yl]oxy]acetamido)methyl]cyclopropyl]formamido)-2-[(1-methanesulfonylpyrrol-3-yl)formamido]-N-(4-phenyl-1,3-thiazol-2-yl)hexanamide] | > 10 | < 50 | > 10 | C (‘C’ = Maximum degradation <50%) | 
Cc1ncsc1-c1ccc(CNC(=O)[C@@H]2C[C@@H](O)CN2C(=O)[C@@H](NC(=O)COCCOCC(=O)NCc2cccc(-c3cccc(-c4csc(NC(=O)CNC(=O)c5ccn(S(C)(=O)=O)c5)n4)c3)c2)C(C)(C)C)cc1 [Compound 44, N-(2-((4-(3′-((S)-12-((2S,4R)-4-hydroxy-2-((4-(4-methylthiazol-5-yl)benzyl)carbamoyl)pyrrolidine-1-carbonyl)-13,13-dimethyl-3,10-dioxo-5,8-dioxa-2,11-diazatetradecyl)-[1,1′-biphenyl]-3-yl)thiazol-2-yl)amino)-2-oxoethyl)-1-(methylsulfonyl)-1H-pyrrole-3-carboxamide] | 1 to 10 | > 75 | 1 to 10 | B (‘B’ = Maximum degradation ≥50% and ≤75%) | 
CS(=O)(=O)n1ccc(C(=O)NCC(=O)Nc2nc(-c3cccc(-c4ccnc(OCCNC(=O)CCCOc5cccc6c5C(=O)N(C5CCC(=O)NC5=O)C6=O)c4)c3)cs2)c1 (stereo not shown) [Compound 36, N-[2-[[4-[3-[2-[2-[4-[2-(2,6-dioxo-3-piperidyl)-1,3-dioxo-isoindolin-4-yl]oxybutanoylamino]ethoxy]-4-pyridyl]phenyl]thiazol-2-yl]amino]-2-oxo-ethyl]-1-methylsulfonyl-pyrrole-3-carboxamide] | > 10 | < 50 | > 10 | C (‘C’ = Maximum degradation <50%) | 
Cc1ncsc1-c1ccc(CNC(=O)[C@@H]2C[C@@H](O)CN2C(=O)[C@@H](NC(=O)CCCCCCCCCCCCCCCC(=O)NCc2cccc(-c3cccc(-c4csc(NC(=O)CNC(=O)c5ccn(S(C)(=O)=O)c5)n4)c3)c2)C(C)(C)C)cc1 [Compound 124, N1-((S)-1-((2S,4R)-4-hydroxy-2-((4-(4-methylthiazol-5-yl)benzyl)carbamoyl)pyrrolidin-1-yl)-3,3-dimethyl-1-oxobutan-2-yl)-N17-((3′-(2-(2-(1-(methylsulfonyl)-1H-pyrrole-3-carboxamido)acetamido)thiazol-4-yl)-[1,1′-biphenyl]-3-yl)methyl)heptadecanediamide] | > 10 | < 50 | > 10 | C (‘C’ = Maximum degradation <50%) | 
